Test results reported in US6251903A, “Alkyl, azido, alkoxy, and fluoro-substituted and fused quinoxalinediones and the use thereof as glycine receptor antagonist” (priority 2000, dated 2001).
Entries after “also recorded” stand apart in the source; their conditions may differ. Where two headings read alike, the source gives them in different places.

Key:
[1] = tested on: neurons; conditions: literature; cited from earlier work
[2] = tested on: glycine binding site of the NMDA receptor; conditions: literature, cited from earlier work
[3] = tested on: animals; conditions: literature; cited from earlier work
[4] = literature, cited from earlier work
[5] = tested on: non-NMDA glutamate receptors; conditions: literature, cited from earlier work
[6] = tested on: dorsal horn nociceptive neurons; conditions: literature; cited from earlier work
[7] = tested on: DBA-2 mice; experiment: audiogenic seizure model in DBA-2 mice; type: in vivo; conditions: Mus musculus, ip, 0.5 h; i.p. injection
Text: The anticonvulsant activity of the glycine and excitatory amino acid antagonists can be assessed in the audiogenic seizure model in DBA-2 mice as follows. DBA-2 mice can be obtained from Jackson Laboratories, Bar Harbor, Maine. These mice at an age of <27 days develop a tonic seizure within 5-10 seconds and die when they are exposed to a sound of 14 kHz (sinus wave) at 110 dB (Lonsdale, D., Dev. Pharmacol. Ther. 4:28 (1982)). […] 21 day old DBA-2 mice are used for all experiments. Compounds are given intraperitoneally in either saline, DMSO, or polyethyleneglycol-400. Appropriate solvent controls are included in each experiment. Dose response curves are constructed by giving increasing doses of drug from 1 mg/kg to 100 mg/kg. Each dose group (or solvent control) consists of at least six animals.

[8] = target: glycine binding site (Rattus norvegicus, UniProt P35439); experiment: affinity for the glycine binding site / glycine/NMDA receptor (Ki; method not stated)
Text: (§1) The binding affinities of quinoxaline-2,3-diones at NMDA receptor glycine sites also were estimated by electrophysiological assays with either cloned rat NMDA receptors expressed in Xenopus oocytes, or non-NMDA receptors expressed in oocytes by whole rat brain poly(A)^+ RNA. […] For NMDA receptors Ki values were approximated by averaging values at three subtype combinations (NR1A/NR2A, NR1A/NR2B, and NR1A/NR2C).

[9] = tested on: mice; experiment: anticonvulsant activity in maximum electroshock seizure (MES) experiments in mice; type: in vivo, male Swiss/Webster mice; conditions: Mus musculus, ip; Table III; i.p. injection
[10] = target: PCP receptor; conditions: Wong et al. 1986; cited from earlier work
[11] = target: NMDA receptor glycine sites; experiment: electrophysiological assay, cloned rat NMDA receptors expressed in Xenopus oocytes; type: cell-based; conditions: Table II; from electrophysiology using Xenopus oocytes
Text: as §1

[12] = tested on: mice; experiment: formalin test for pain in Swiss Webster mice; type: in vivo, male Swiss Webster mice; conditions: i.p., early and late phases
Protocol: The effects of the glycine receptor antagonists of the present invention on chronic pain can be evaluated as follows. Male Swiss/Webster mice weighing 25-35 grams are housed five to a cage with free access to food and water and are maintained on a 12 hour light cycle (light onset at 0800h). The glycine receptor antagonist is dissolved in DMSO at a concentration of 140 and 5-40 mg/mL, respectively. DMSO is used as vehicle control. All drugs=are injected intraperitoneally (1 μl/g). […] Mice are observed in a plexiglass cylinder, 25 cm in diameter and 30 cm in height. The plantar surface of one hindpaw is injected subcutaneously with 20 μl of 5% formalin. The degree of pain is determined by measuring the amount of time the animal spends licking the formalin-injected paw during the following time intervals: 0-5' (early phase); 5'-10', 10'-15' and 15'-50' (late phase). To test whether the glycine/excitatory amino acid antagonists prevent chronic pain in the test animals, vehicle (DMSO) or drugs dissolved in vehicle at doses of 1 mg/kg to 40 mg/kg are injected intraperitoneally 30 minutes prior to the formalin injection. For each dose of drug or vehicle control at least six animals are used.
Briefly, after a 60 minute accommodation period in plexiglass jars, mice were weighed and injected intraperitoneally (i.p.) with NDMQX (1-20 mg/kg; N=6-10 mice/dose). Controls were injected with DMSO (1 mL/kg, i.p.). Thirty min later, mice were injected with formalin (20 μl of 5% solution) just under the skin of the right hind paw, transferred to the plexiglass jars, and immediately observed for licking or biting of the injected paw for 1 hr. The amount of time that each mouse spent licking the injected paw was measured at 0-5 min (early phase) and 15-50 min (late phase).
In the formalin test, following a 1 hr accommodation period, mice were injected i.p. with NMCQX (1.00-10.00 mg/kg, N=7-13 mice/dose) or NDMQX (0.5-20.00 mg/kg, N=8-9 mice/dose). Control mice were injected with Tris (0.5 M) or Bis-Tris (0.2 M), respectively. Mice were then injected with formalin. […] The amount of time that each mouse spent licking and/or biting the injected paw was recorded for 1 hr.

[13] = tested on: rats; experiment: rat model of permanent focal cerebral ischemia, continuous intravenous infusion; type: in vivo, male Sprague-Dawley rats
Protocol: Male Sprague-Dawley rats (290-320 g) were […] and maintained under anesthesia with ±2% of halothane. […] The common carotid arteries (CCA) were isolated, and a loose silk ligature Was placed around each CCA. A vertical skin incision was made between the left orbit and the auditory canal, posterior part of zygoma removed and small opening (2.0/2.5 mm) drilled dorsorostrally to the foramen ovale under constant saline irrigation. The dura was opened with a microsurgical hook and the brain gently retracted with a fine spatula to expose the bifurcation of the internal carotid artery and the middle cerebral artery. The ipsilateral CCA was ligated and the MCA coagulated from its origin to the olfactory tract Two hours after MCA occlusion, the clip from the contralateral CCA was removed.
NDMQX was dissolved in 0.1 M L-arginine and 5% glucose and infused as a slow 10 mg/kg i.v. bolus (immediately after MCA occlusion) followed by 7 mg/kg/h infusion for 22 hours.
Brains were sliced into 2 mm blocks and stained with tetrazolium red (2,3,5-triphenyl tetrazolium chloride). The areas of brain damage were assessed using an image analyzer (Image-1, Universal Imaging Corporation, PA) to determine the volume of cortical and subcortical infarction by integration of areas and the distance between each level.
For the drug administration, the NMCQX was dissolved in 0.05 Tris and 5% glucose. It was infused as a slow 2 mg/kg i.v. bolus (immediately after MCA occlusion) followed by 1.4 mg/kg/h infusion for 22 hours.

[14] = tested on: mice; experiment: MES test with i.p. NMCQX or NDMQX (Example 51); type: in vivo, Swiss Webster mice; conditions: NMCQX 1.25-7.50 mg/kg, NDMQX 5.00-15.00 mg/kg
Protocol: In the MES test, mice were injected i.p. with NMCQX (1.25-7.50 mg/kg) or NDMQX (5.00-15.00 mg/kg). Control mice were injected with Tris (0.05 M) or Arginine (0.1 M), respectively. Seizures were then induced by applying a rectangular pulse, 50 mA, 60 pulses/sec, 0.8 msec pulse width, and 0.2 sec train length, at the time of the drugs' peak effect.

[15] = tested on: mice; experiment: anticonvulsant activity in maximum electroshock seizure (MES) experiments in mice; type: in vivo, male Swiss/Webster mice
Protocol: The seizure stimulus parameters were: 50 mA, 60 Hz, rectangular pulse, width 0.8 msec, duration 200 msec. Tonic hind limb extension observed after application of the electrical stimulus was recorded as occurrence of seizure. The drug was applied i.v. as an aqueous Tris (Tromethamine) solution.

[16] = listed as 6-cyano-7-nitroquinoxaline-2,3-dione

For `N#Cc1cc2nc(O)c(O)nc2cc1[N+](=O)[O-]` [6-cyano-7-nitro-1,4-dihydroquinoxaline-2,3-dione], which “neuroprotective efficacy” value [1] is on record?
The value was “neuroprotective in vitro”.

What about the “glycine site antagonism or affinity (words)” value [2] of the same compound?
Its value is “can antagonize the responses to L-glutamate by interacting with the glycine recognition sites; also recorded: inhibit [^3 H] glycine binding to the strychnine-insensitive glycine binding sites; also recorded: antagonizes NMDA receptor-mediated responses by a competitive interaction of the glycine binding site”.

And the “glycine site antagonism or affinity (words)” value [2, 16]?
The value was “glycine antagonists”.

And the “in vivo activity” value [3]?
Its value is “antagonize responses mediated by NMDA-associated glycine recognition sites in vivo”.

What about the “penetration of the blood/brain barrier (words)” value [4] of the same compound?
Its value is “incapable of crossing the blood/brain barrier after i.p. administration”.

And the “penetration of the blood/brain barrier (words)” value ([4]; listed as CNQX)?
The value was “poor access to the central nervous system”.

What about the “penetration of the blood/brain barrier (words)” value ([4]; listed as cyano-7-nitro-1,4-dihydroquinoxaline-2,3-dione) of the same compound?
The value was “poor access to the central nervous system”.

What about the “antagonism at kainate / AMPA / non-NMDA receptors” value [5] of the same compound?
Its value is “more potent antagonists of kainate than glycine”.

What about the “antagonism at kainate / AMPA / non-NMDA receptors” value [5, 16] of the same compound?
The value was “AMPA”.

What about the “antagonism at kainate / AMPA / non-NMDA receptors” value ([5]; listed as 7-cyano-6-nitro-1,4-dihydroquinoxaline-2,3-dione) of the same compound?
Its value is “potent non-NMDA glutamate receptor antagonists”.

For `O=C(O)c1cc(O)c2ccc(Cl)cc2n1` [7-Cl-kynurenic acid], which “blockade of "wind up"” value [6] is on record?
Its value is “blocked the "wind up" phenomenon”.

And the “glycine site antagonism or affinity (words)” value [2]?
Its value is “relatively high receptor binding affinity in vitro”.

What about the “penetration of the blood/brain barrier (words)” value [4] of the same compound?
The value was “cannot penetrate the blood/brain barrier”.

For `O=c1[nH]c2cc(F)c(F)c(Br)c2[nH]c1=O` [Br F F H], which ED50 [7] is on record?
Its ED50 is 30 mg/kg.

What about the Ki ([8]; Table III, read-out: Ki) of the same compound?
Its Ki is 2300 nM.

Which ED50 [9] does the source give for `O=c1[nH]c2c(F)c(F)c(F)c(F)c2[nH]c1=O` [F F F F, 5,6,7,8-tetrafluoro-1,4-dihydroquinoxaline-2,3-dione] here?
Its ED50 is 20 mg/kg.

And the ED50 [7]?
Its ED50 is 9 mg/kg.

And the Ki ([8]; Table III, read-out: Ki)?
Its Ki is 2190 nM.

With `C[C@]12N[C@H](Cc3ccccc31)c1ccccc12` [MK801] as the compound, how does the “neuroprotective efficacy” value [1] read?
Its value is “have neuroprotective efficacy both in vitro and in vivo”.

What about the Kd [10] of the same compound?
The Kd was ~3 nM.

With `Cc1c(Cl)cc2[nH]c(=O)c(=O)[nH]c2c1[N+](=O)[O-]` [NMCQX, 7-Chloro-6-methyl-5-nitro-1,4-dihydroquinoxaline-2,3-dione] as the compound, how does the Ki [11] read?
The Ki was 5 nM.

And the “antinociceptive effect in the formalin test” value [12]?
The value was “dose-dependent antinociceptive effect in both phases”.

And the “reduction in cortical infarct volume” value ([13]; 2 mg/kg i.v. bolus then 1.4 mg/kg/h for 22 hours, p<0.05)?
The value was 75%.

And the “neuroprotection” value ([13]; rat focal ischemia)?
Its value is “significant neuroprotection”.

And the “protection from electroshock seizures” value [14]?
The value was “dose-dependently protected mice from generalized clonic-tonic seizures”.

What about the Ki [8] of the same compound?
The Ki was 5 nM.

And the “times better than 6,7-dichloro-5-nitro-1,4-dihydroquinoxaline-2,3-dione as anticonvulsant” value ([15]; MES ED50 ratio)?
The value was 4-5 times.

What about the “ED50 as an anticonvulsant in the MES experiment in mice” value ([15]; route not stated) of the same compound?
Its value is 1 mg/kg.
